From ChEMBL document CHEMBL5537194, “Tight-Binding Small-Molecule Carboxylesterase 2 Inhibitors Reduce Intracellular Irinotecan Activation” (J Med Chem, 2024)

Experiments:
[1] = Inhibition of human CES1 activity at 40 uM measured after 20 mins
Cocaine esterase = molecular target: T1, Cocaine esterase (Homo sapiens, UniProt O00748); assay: Inhibition of human recombinant CES2 activity assessed as fluorescence of the AP product using Benz-AP as substrate
T1 sequence (O00748 whole entry): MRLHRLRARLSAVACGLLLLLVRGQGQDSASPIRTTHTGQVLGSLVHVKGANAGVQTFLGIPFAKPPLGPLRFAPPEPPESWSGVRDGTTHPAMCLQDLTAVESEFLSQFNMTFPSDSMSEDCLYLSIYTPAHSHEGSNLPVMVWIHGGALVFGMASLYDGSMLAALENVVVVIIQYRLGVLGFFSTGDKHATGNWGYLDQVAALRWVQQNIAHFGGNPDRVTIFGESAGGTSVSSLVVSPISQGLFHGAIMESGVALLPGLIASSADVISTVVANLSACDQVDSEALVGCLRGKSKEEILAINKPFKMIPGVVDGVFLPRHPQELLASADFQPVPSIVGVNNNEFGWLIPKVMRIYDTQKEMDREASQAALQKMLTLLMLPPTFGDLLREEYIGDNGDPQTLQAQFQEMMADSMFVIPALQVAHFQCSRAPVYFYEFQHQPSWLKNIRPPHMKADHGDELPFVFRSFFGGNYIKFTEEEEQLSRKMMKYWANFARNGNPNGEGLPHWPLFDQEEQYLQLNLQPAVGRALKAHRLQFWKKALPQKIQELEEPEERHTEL

CES2 (cocaine esterase) [2] = molecular target: T2, CES2 (cocaine esterase) (Homo sapiens, UniProt O00748); assay: Inhibition of human recombinant CES2 activity assessed as fluorescence of the AP product using Benz-AP as substrate by measuring residual activity at 40 uM relative to control; conditions: recombinant CES2, probe Benz-AP
T2 sequence (O00748 whole entry): T1 sequence (O00748 whole entry)

CES2 (cocaine esterase) [3] = molecular target: T2, CES2 (cocaine esterase); assay: in vitro; conditions: recombinant CES2, probe CPT-11 (conversion to SN-38)
PANC-1 = assay: Cytotoxicity against human PANC-1 cells assessed as cell viability incubated for 14 days by crystal violet-based clonogenic assay; conditions: PANC-1, 336 h

Row | SMILES | IC50 [1] [nM] | IC50 (Cocaine esterase) [nM] | activity at 40 µM (CES2 (cocaine esterase) [2]) [%] | inhibition at 10 min, 12 µM (CES2 (cocaine esterase) [3]) [%] | IC50 (PANC-1) [nM]
1 | Cc1ccc(CN2Cc3cc4ccc(C)c(C)c4nc3OC2=O)o1 | 61 | 18 | 0.2 | – | –
2 | CC(C)CN1C(=O)CCc2cc(NC(=O)Cc3cccc(F)c3)ccc21 | – | 177 | -0.17 | 95 | –
3 | COc1cc2c(cc1OC)C(C)N(C(=O)c1cc3c(s1)-c1ccccc1S(=O)(=O)C3)CC2 (configuration not stated) | – | < 10 | 13 | 31 | –
4 | CCc1c2c(nc3ccc(OC(=O)N4CCC(N5CCCCC5)CC4)cc13)-c1cc3c(c(=O)n1C2)COC(=O)[C@]3(O)CC [IRINOTECAN] | – | – | – | – | 11000
5 | Cc1ccc(Nc2nc(C(=O)NCc3ccccc3)cc3occc23)cc1 | – | < 10 | 3 | 63 | –
6 | O=C(CSc1cn(CC(=O)N2CCCC2)c2ccccc12)Nc1ccc(F)cc1F | – | < 10 | 0.9 | 91 | –
7 | CCOc1ccc2ncc(S(=O)(=O)c3ccc(OC)cc3)c(N3CCC4(CC3)OCCO4)c2c1 | – | 66 | 1.3 | 94 | –
8 | CCn1c(=O)c2sc(N3CCCC3)nc2n(CC(=O)Nc2cccc(Cl)c2C)c1=O | – | – | 37 | 51 | –
9 | CC(C)c1ccccc1OC(=O)NCCc1ccc2ccccc2c1 | 23 | – | – | – | –
